From patent US20080280920A1, “Plasminogen Activator Inhibitor-1 Inhibitors” (priority 2005, published 2008)

Columns and labels:
Type in all cases: cell-based, human
K-562 = experiment: NCI anticancer screen, K-562; conditions: K-562, Leukemia, 48 h
786-0 = experiment: NCI anticancer screen, 786-0; conditions: 786-0, Renal, 48 h
T-47D = experiment: NCI anticancer screen, T-47D; conditions: Breast, 48 h
HCT-15 = experiment: NCI anticancer screen, HCT-15; conditions: HCT-15, Colon, 48 h
DU-145 = experiment: NCI anticancer screen, DU-145; conditions: DU-145, Prostate, 48 h
RXF 393 = experiment: NCI anticancer screen, RXF 393; conditions: RXF 393, Renal, 48 h
SK-MEL-28 = experiment: NCI anticancer screen, SK-MEL-28; conditions: SK-MEL-28, Melanoma, 48 h
SN12C = experiment: NCI anticancer screen, SN12C; conditions: 48 h, Renal
A498 = experiment: NCI anticancer screen, A498; conditions: A498, Renal, 48 h
SF-539 = experiment: NCI anticancer screen, SF-539; conditions: SF-539, CNS, 48 h
HOP-92 = experiment: NCI anticancer screen, HOP-92; conditions: HOP-92, Non-Small Cell Lung, 48 h
MCF7 = experiment: NCI anticancer screen, MCF7; conditions: MCF7, Breast, 48 h
SK-MEL-5 = experiment: NCI anticancer screen, SK-MEL-5; conditions: SK-MEL-5, Melanoma, 48 h
IGR-OV1 = experiment: NCI anticancer screen, IGR-OV1; conditions: IGR-OV1, Ovarian, 48 h
UACC-62 = experiment: NCI anticancer screen, UACC-62; conditions: UACC-62, Melanoma, 48 h
A549/ATCC = experiment: NCI anticancer screen, A549/ATCC; conditions: Non-Small Cell Lung, 48 h
SF-268 = experiment: NCI anticancer screen, SF-268; conditions: SF-268, CNS, 48 h
M14 = experiment: NCI anticancer screen, M14; conditions: M14, Melanoma, 48 h
SNB-19 = experiment: NCI anticancer screen, SNB-19; conditions: SNB-19, CNS, 48 h
OVCAR-3 = experiment: NCI anticancer screen, OVCAR-3; conditions: OVCAR-3, Ovarian, 48 h
OVCAR-8 = experiment: NCI anticancer screen, OVCAR-8; conditions: OVCAR-8, Ovarian, 48 h
COLO 205 = experiment: NCI anticancer screen, COLO 205; conditions: COLO 205, Colon, 48 h
OVCAR-5 = experiment: NCI anticancer screen, OVCAR-5; conditions: OVCAR-5, Ovarian, 48 h
NCI-H522 = experiment: NCI anticancer screen, NCI-H522; conditions: NCI-H522, Non-Small Cell Lung, 48 h
BT-549 = experiment: NCI anticancer screen, BT-549; conditions: BT-549, Breast, 48 h
HT29 = experiment: NCI anticancer screen, HT29; conditions: HT29, Colon, 48 h
OVCAR-4 = experiment: NCI anticancer screen, OVCAR-4; conditions: OVCAR-4, Ovarian, 48 h
EKVX = experiment: NCI anticancer screen, EKVX; conditions: Non-Small Cell Lung, 48 h
MDA-MB-231/ATCC = experiment: NCI anticancer screen, MDA-MB-231/ATCC; conditions: Breast, 48 h
KM12 = experiment: NCI anticancer screen, KM12; conditions: KM12, Colon, 48 h
SF-295 = experiment: NCI anticancer screen, SF-295; conditions: SF-295, CNS, 48 h
HS 578T = experiment: NCI anticancer screen, HS 578T; conditions: Breast, 48 h
TK-10 = experiment: NCI anticancer screen, TK-10; conditions: TK-10, Renal, 48 h
CAKI-1 = experiment: NCI anticancer screen, CAKI-1; conditions: CAKI-1, Renal, 48 h
[1] = Homo sapiens, read-out: LC50 (the source's name)

CCOC(=O)c1ccc(CNCc2cc(CN3CCN(c4ccccn4)CC3)c(O)c(OC)c2)cc1 [Compound Q012135T] gave a GI50 (K-562; Homo sapiens, K562) of 3.4 µM, a CC50 (K-562; Homo sapiens, K562, read-out: LC50 (the source's name)) of 3.4 µM and a TGI (K-562) of 14.1 µM. For the same compound, the TGI (786-0) was 31.0 µM, the GI50 (786-0; Homo sapiens) was 16.2 µM and the CC50 (786-0; [1]) was 59.2 µM. For the same compound, the TGI (T-47D) was 49.2 µM, the GI50 (T-47D; Homo sapiens, T47D) was 14.7 µM and the CC50 (T-47D; Homo sapiens, T47D, read-out: LC50 (the source's name)) was over 100 µM. It also gave a TGI (HCT-15) of over 100 µM, a GI50 (HCT-15; Homo sapiens) of 26.9 µM and a CC50 (HCT-15; [1]) of over 100 µM. It also gave a TGI (DU-145) of 36.5 µM, a GI50 (DU-145; Homo sapiens) of 17 µM and a CC50 (DU-145; [1]) of 78.4 µM. For the same compound, the GI50 (RXF 393; Homo sapiens) was 18.8 µM, the CC50 (RXF 393; [1]) was 84.5 µM and the TGI (RXF 393) was 39.9 µM. For the same compound, the GI50 (SK-MEL-28; Homo sapiens) was 15.1 µM, the CC50 (SK-MEL-28; [1]) was 57.4 µM and the TGI (SK-MEL-28) was 29.5 µM. It also gave a GI50 (SN12C; Homo sapiens) of 21.7 µM, a CC50 (SN12C; [1]) of over 100 µM and a TGI (SN12C) of 55.7 µM. It also gave a TGI (A498) of 51.4 µM, a GI50 (A498; Homo sapiens) of 25.8 µM and a CC50 (A498; [1]) of over 100 µM. It also gave a GI50 (SF-539; Homo sapiens) of 16 µM, a CC50 (SF-539; [1]) of 57.2 µM and a TGI (SF-539) of 30.2 µM. The TGI (HOP-92) was 31.8 µM, the GI50 (HOP-92; Homo sapiens) was 12.8 µM and the LC50 (concentration killing 50% of starting cells) (HOP-92; Homo sapiens) was 79.1 µM. It also gave a GI50 (MCF7; Homo sapiens) of 16.3 µM, a CC50 (MCF7; [1]) of 69.9 µM and a TGI (MCF7) of 33.7 µM. It also gave a GI50 (SK-MEL-5; Homo sapiens) of 12.9 µM, a CC50 (SK-MEL-5; [1]) of 51.8 µM and a TGI (SK-MEL-5) of 25.8 µM. The GI50 (IGR-OV1; Homo sapiens, IGROV-1) was 14.7 µM, the CC50 (IGR-OV1; Homo sapiens, IGROV-1, read-out: LC50 (the source's name)) was over 100 µM and the TGI (IGR-OV1) was 43.4 µM. For the same compound, the GI50 (UACC-62; Homo sapiens) was 20.1 µM, the CC50 (UACC-62; [1]) was 72.4 µM and the TGI (UACC-62) was 38.2 µM. It also gave a GI50 (A549/ATCC; Homo sapiens) of 36.9 µM, an LC50 (A549/ATCC; Homo sapiens) of over 100 µM and a TGI (A549/ATCC) of over 100 µM. For the same compound, the GI50 (SF-268; Homo sapiens) was 19.1 µM, the LC50 (SF-268; Homo sapiens) was 71.1 µM and the TGI (SF-268) was 36.9 µM. For the same compound, the GI50 (M14; Homo sapiens) was 17.2 µM, the CC50 (M14; [1]) was 64.8 µM and the TGI (M14) was 33.4 µM. It also gave a GI50 (SNB-19; Homo sapiens) of 33.1 µM, a CC50 (SNB-19; [1]) of over 100 µM and a TGI (SNB-19) of over 100 µM. For the same compound, the GI50 (OVCAR-3; Homo sapiens) was 14.1 µM, the CC50 (OVCAR-3; [1]) was 61.2 µM and the TGI (OVCAR-3) was 29.4 µM. For the same compound, the GI50 (OVCAR-8; Homo sapiens) was 22.1 µM, the CC50 (OVCAR-8; [1]) was over 100 µM and the TGI (OVCAR-8) was 49.1 µM. It also gave a TGI (COLO 205) of 36.3 µM, a GI50 (COLO 205; Homo sapiens) of 17 µM and a CC50 (COLO 205; [1]) of 77.6 µM. It also gave a GI50 (OVCAR-5; Homo sapiens) of 23.4 µM, a CC50 (OVCAR-5; [1]) of 91.7 µM and a TGI (OVCAR-5) of 46.3 µM. It also gave a GI50 (NCI-H522; Homo sapiens) of 15.5 µM, an LC50 (concentration killing 50% of cells) (NCI-H522; Homo sapiens) of 81.7 µM and a TGI (NCI-H522) of 35.6 µM. The TGI (BT-549) was 30.0 µM, the GI50 (BT-549; Homo sapiens) was 15.5 µM and the CC50 (BT-549; [1]) was 58 µM. For the same compound, the TGI (HT29) was 31.8 µM, the GI50 (HT29; Homo sapiens, HT-29) was 17.1 µM and the CC50 (HT29; Homo sapiens, HT-29, read-out: LC50 (the source's name)) was 59 µM. The GI50 (OVCAR-4; Homo sapiens) was 18.6 µM, the CC50 (OVCAR-4; [1]) was 98 µM and the TGI (OVCAR-4) was 42.7 µM. The GI50 (EKVX; Homo sapiens) was 21.3 µM, the CC50 (EKVX; [1]) was over 100 µM and the TGI (EKVX) was 62.1 µM. For the same compound, the TGI (MDA-MB-231/ATCC) was 38.1 µM, the GI50 (MDA-MB-231/ATCC; Homo sapiens) was 18.1 µM and the CC50 (MDA-MB-231/ATCC; [1]) was 80.5 µM. The GI50 (KM12; Homo sapiens) was 21 µM, the CC50 (KM12; [1]) was 73.3 µM and the TGI (KM12) was 39.2 µM. The GI50 (SF-295; Homo sapiens) was 19.6 µM, the CC50 (SF-295; [1]) was 73.5 µM and the TGI (SF-295) was 38.0 µM. It also gave a TGI (HS 578T) of 41.7 µM, a GI50 (HS 578T; Homo sapiens) of 19.1 µM and a CC50 (HS 578T; [1]) of 90.9 µM. It also gave a GI50 (TK-10; Homo sapiens) of 20.6 µM, a CC50 (TK-10; [1]) of over 100 µM and a TGI (TK-10) of 46.3 µM. The TGI (CAKI-1) was 44.0 µM, the GI50 (CAKI-1; Homo sapiens) was 17.2 µM and the CC50 (CAKI-1; [1]) was over 100 µM.
